The values below come from patent US11884647B2, “Compounds and methods for targeting pathogenic blood vessels” (THE REGENTS OF THE UNIVERSITY OF CALIFORNIA, priority 2019, dated 2024).

The subject of the first test is tumor endothelial cells (LL/2 lung cancer tumor). The test can be described thus: Lung LL2 ex vivo model of tumor angiogenesis. Type of test: cell-based, mouse. Conditions: Lung LL2 ex vivo; Conc. 20 μm; (24 hrs). Put shortly: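 Mouse LL2 tumor fragments (~0.5×0.5×0.3 mm) embedded in Matrigel and grown in endothelial growth medium at 37° C until endothelial outgrowth (about 4 days) before drug treatment. About 48 h after drug addition, stained 10 min with fluorescein diacetate/propidium iodide; live (green) and dead (red) cells imaged at 2× with fixed channel settings.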
Regarding `CCCCCCCCCCOc1ccc(S(=O)(=O)c2cnc3ccc([S+](C)[O-])cc3c2N2CCC(N3CCC(N4CCOCC4)CC3)CC2)cc1` (centres unmarked) [compound 286, 4-(1′-(3-((4-(decyloxy)phenyl)sulfonyl)-6-(methylsulfinyl)quinolin-4-yl)-[1,4′-bipiperidin]-4-yl)morpholine], the “Cell death (24 hrs)” value worked out at 0% and the “Morphology observations (24 hrs)” value amounted to 0.

`CCCCCCCCCCOc1ccc(S(=O)(=O)c2cnc3ccc([S+](C)[O-])cc3c2N2CCC(N3CCC(N4CCCN(C)CC4)CC3)CC2)cc1` (centres unmarked) [compound 287, 3-((4-(decyloxy)phenyl)sulfonyl)-4-(4-(4-methyl-1,4-diazepan-1-yl)-[1,4′-bipiperidin]-1′-yl)-6-(methylsulfinyl)quinoline]: the “Cell death (24 hrs)” value is reported as 40% and the “Morphology observations (24 hrs)” value is recorded as “* (50% or less of cells vesicularize in cell shape)”.

Still in this test, the particulars now being: Lung LL2 ex vivo; Conc. 20 μm; drug treatment two days.
The molecule `CCCCCCCOc1ccc(S(=O)(=O)c2cnc3ccc(SC)cc3c2N2CCN(C3CCN(C)CC3)CC2)cc1` [compound 273, 3-((4-(heptyloxy)phenyl)sulfonyl)-4-(4-(1-methylpiperidin-4-yl)piperazin-1-yl)-6-(methylthio)quinoline] registered a Cell death of 60%.

The test is the same for the next values; noted with them: Mus musculus, Endothelial cell, 48 h, read-out: Cell death.
Turning to `CCCCCCCOc1ccc(S(=O)(=O)c2cnc3ccc(SC)cc3c2N2CCC(N3CCCN(C)CC3)CC2)cc1` [compound 249, 3-((4-(heptyloxy)phenyl)sulfonyl)-4-(4-(4-methyl-1,4-diazepan-1-yl)piperidin-1-yl)-6-(methylthio)quinoline], the cytotoxicity at 20 µM is 60%.

As for `CCCCCCCOc1ccc(S(=O)(=O)c2cnc3ccc(SC)cc3c2N2CCC(N3CCN(CCO)CC3)CC2)cc1` [compound 250, 2-(4-(1-(3-((4-(heptyloxy)phenyl)sulfonyl)-6-(methylthio)quinolin-4-yl)piperidin-4-yl)piperazin-1-yl)ethan-1-ol], the cytotoxicity at 20 µM turned out to be 90%.

On to `CCCCCCCOc1ccc(S(=O)(=O)c2cnc3ccc(SC)cc3c2N2CCC(N3CCC(N4CCCCC4)CC3)CC2)cc1` [compound 251, 4-([1,4′:1′,4″-terpiperidin]-1″-yl)-3-((4-(heptyloxy)phenyl)sulfonyl)-6-(methylthio)quinoline], for which the cytotoxicity at 20 µM was 60%.

For the molecule `CCCCCCCOc1ccc(S(=O)(=O)c2cnc3ccc(SC)cc3c2N2CCC(N3CCC(O)(c4ccccc4)CC3)CC2)cc1` [compound 262, 1′-(3-((4-(heptyloxy)phenyl)sulfonyl)-6-(methylthio)quinolin-4-yl)-4-phenyl-[1,4′-bipiperidin]-4-ol], the cytotoxicity at 10 µM was determined as 20%.

With `CCCCCCCOc1ccc(S(=O)(=O)c2cnc3ccc([S+](C)[O-])cc3c2N2CCC(N3CCC(O)(c4ccccc4)CC3)CC2)cc1` (centres unmarked) [compound 263, 1′-(3-((4-(heptyloxy)phenyl)sulfonyl)-6-(methylsulfinyl)quinolin-4-yl)-4-phenyl-[1,4′-bipiperidin]-4-ol], the cytotoxicity at 10 µM was found to be 100%.

For the molecule `CCCCCCCCCCOc1ccc(S(=O)(=O)c2cnc3ccc([S+](C)[O-])cc3c2N2CCC(N3CCN(C)CC3)CC2)cc1` (centres unmarked) [compound 264, 3-((4-(decyloxy)phenyl)sulfonyl)-4-(4-(4-methylpiperazin-1-yl)piperidin-1-yl)-6-(methylsulfinyl)quinoline], the cytotoxicity at 10 µM was 20%.

`CCCCCCCCCCOc1ccc(S(=O)(=O)c2cnc3ccc([S+](C)[O-])cc3c2N2CCC(N3CCCC(O)C3)CC2)cc1` (centres unmarked) [compound 265, 1′-(3-((4-(decyloxy)phenyl)sulfonyl)-6-(methylsulfinyl)quinolin-4-yl)-[1,4′-bipiperidin]-3-ol]: the cytotoxicity at 10 µM stood at 20%.

`CCCCCCCCCCOc1ccc(S(=O)(=O)c2cnc3ccc([S+](C)[O-])cc3c2N2CCCN(CCN3CCCCC3)CC2)cc1` (centres unmarked) [compound 266, 3-((4-(decyloxy)phenyl)sulfonyl)-6-(methylsulfinyl)-4-(4-(2-(piperidin-1-yl)ethyl)-1,4-diazepan-1-yl)quinoline]: the cytotoxicity at 10 µM amounted to 5%.

In the case of `CCCCCCCCCCOc1ccc(S(=O)(=O)c2cnc3ccc([S+](C)[O-])cc3c2N2CCC(N3CCCN(C)CC3)CC2)cc1` (centres unmarked) [compound 267, 3-((4-(decyloxy)phenyl)sulfonyl)-4-(4-(4-methyl-1,4-diazepan-1-yl)piperidin-1-yl)-6-(methylsulfinyl)quinoline], the cytotoxicity at 10 µM was 5%.

Take `CCCCCCCCCCOc1ccc(S(=O)(=O)c2cnc3ccc([S+](C)[O-])cc3c2N2CCC(N3CCN(CCO)CC3)CC2)cc1` (centres unmarked) [compound 268, 2-(4-(1-(3-((4-(decyloxy)phenyl)sulfonyl)-6-(methylsulfinyl)quinolin-4-yl)piperidin-4-yl)piperazin-1-yl)ethan-1-ol]: the cytotoxicity at 20 µM worked out at 50%.

Regarding `CCCCCCCCCCOc1ccc(S(=O)(=O)c2cnc3ccc([S+](C)[O-])cc3c2N2CCC(N3CCC(N4CCCCC4)CC3)CC2)cc1` (centres unmarked) [compound 269, 4-([1,4′:1′,4″-terpiperidin]-1″-yl)-3-((4-(decyloxy)phenyl)sulfonyl)-6-(methylsulfinyl)quinoline], the cytotoxicity at 20 µM stood at 100%.

For the molecule `CCCCCCCCCCOc1ccc(S(=O)(=O)c2cnc3ccc([S+](C)[O-])cc3c2N2CCC(N3CCC(O)(c4ccccc4)CC3)CC2)cc1` (centres unmarked) [compound 270, 1′-(3-((4-(decyloxy)phenyl)sulfonyl)-6-(methylsulfinyl)quinolin-4-yl)-4-phenyl-[1,4′-bipiperidin]-4-ol], the cytotoxicity at 20 µM was found to be 50%.

Regarding `CCCCCCCOc1ccc(S(=O)(=O)c2cnc3ccc(SC)cc3c2N2CCN(CCN3CCCC3)CC2)cc1` [compound 272, 3-((4-(heptyloxy)phenyl)sulfonyl)-6-(methylthio)-4-(4-(2-(pyrrolidin-1-yl)ethyl)piperazin-1-yl)quinoline], the cytotoxicity at 20 µM was 20%.

In the case of `CCCCCCCOc1ccc(S(=O)(=O)c2cnc3ccc(SC)cc3c2N2CCN(C3CCN(Cc4ccccc4)C3)CC2)cc1` (centres unmarked) [compound 274, 4-(4-(1-benzylpyrrolidin-3-yl)piperazin-1-yl)-3-((4-(heptyloxy)phenyl)sulfonyl)-6-(methylthio)quinoline], the cytotoxicity at 20 µM was determined as 10%.

As for `CCCCCCCOc1ccc(S(=O)(=O)c2cnc3ccc(SC)cc3c2N2CCN(CC3CCN(Cc4ccccc4)CC3)CC2)cc1` [compound 275, 4-(4-((1-benzylpiperidin-4-yl)methyl)piperazin-1-yl)-3-((4-(heptyloxy)phenyl)sulfonyl)-6-(methylthio)quinoline], the cytotoxicity at 20 µM was determined as 5%.

For `CCCCCCCOc1ccc(S(=O)(=O)c2cnc3ccc([S+](C)[O-])cc3c2N2CCN(CCN3CCCC3)CC2)cc1` (centres unmarked) [compound 276, 3-((4-(heptyloxy)phenyl)sulfonyl)-6-(methylsulfinyl)-4-(4-(2-(pyrrolidin-1-yl)ethyl)piperazin-1-yl)quinoline], the cytotoxicity at 20 µM was determined as 100%.

Take `CCCCCCCOc1ccc(S(=O)(=O)c2cnc3ccc([S+](C)[O-])cc3c2N2CCN(C3CCN(Cc4ccccc4)C3)CC2)cc1` (centres unmarked) [compound 278, 4-(4-(1-benzylpyrrolidin-3-yl)piperazin-1-yl)-3-((4-(heptyloxy)phenyl)sulfonyl)-6-(methylsulfinyl)quinoline]: the cytotoxicity at 10 µM was 50%.

As for `CCCCCCCOc1ccc(S(=O)(=O)c2cnc3ccc([S+](C)[O-])cc3c2N2CCN(CC3CCN(Cc4ccccc4)CC3)CC2)cc1` (centres unmarked) [compound 279, 4-(4-((1-benzylpiperidin-4-yl)methyl)piperazin-1-yl)-3-((4-(heptyloxy)phenyl)sulfonyl)-6-(methylsulfinyl)quinoline], the cytotoxicity at 20 µM amounted to 100%.

As to `CCCCCCCOc1ccc(S(=O)(=O)c2cnc3ccc(SC)cc3c2N2CCN(CCN3CCCCC3)CC2)cc1` [compound 281, 3-((4-(heptyloxy)phenyl)sulfonyl)-6-(methylthio)-4-(4-(2-(piperidin-1-yl)ethyl)piperazin-1-yl)quinoline], the cytotoxicity at 20 µM worked out at 50%.

Regarding `CCCCCCCOc1ccc(S(=O)(=O)c2cnc3ccc([S+](C)[O-])cc3c2N2CCN(CCN3CCCCC3)CC2)cc1` (centres unmarked) [compound 282, 3-((4-(heptyloxy)phenyl)sulfonyl)-6-(methylsulfinyl)-4-(4-(2-(piperidin-1-yl)ethyl)piperazin-1-yl)quinoline], the cytotoxicity at 10 µM was determined as 10%.

On to `CC(C)CCCC(C)CCOc1ccc(S(=O)(=O)c2cnc3ccc([S+](C)[O-])cc3c2N2CCC(N3CCN(CCO)CC3)CC2)cc1` (centres unmarked) [compound 284, 2-(4-(1-(3-((4-((3,7-dimethyloctyl)oxy)phenyl)sulfonyl)-6-(methylsulfinyl)quinolin-4-yl)piperidin-4-yl)piperazin-1-yl)ethan-1-ol], for which the cytotoxicity at 10 µM was determined as 10%.

With `CCCCCCCCCCOc1ccc(S(=O)(=O)c2cnc3ccc([S+](C)[O-])cc3c2N2CCC(N3CCC(N4CCN(C)CC4)CC3)CC2)cc1` (centres unmarked) [compound 285, 3-((4-(decyloxy)phenyl)sulfonyl)-4-(4-(4-methylpiperazin-1-yl)-[1,4′-bipiperidin]-1′-yl)-6-(methylsulfinyl)quinoline], the cytotoxicity at 10 µM amounted to 60%.

As to `CCCCCCCCCCOc1ccc(S(=O)(=O)c2cnc3ccc([S+](C)[O-])cc3c2N2CCC(N3CCC(N4CCCC(O)C4)CC3)CC2)cc1` (centres unmarked) [compound 288, 1″-(3-((4-(decyloxy)phenyl)sulfonyl)-6-(methylsulfinyl)quinolin-4-yl)-[1,4′:1′,4″- terpiperidin]-3-ol], the cytotoxicity at 10 µM is 50%.

Turning to `CC(C)CCCC(C)CCOc1ccc(S(=O)(=O)c2cnc3ccc([S+](C)[O-])cc3c2N2CCC(N3CCC(N4CCCCC4)CC3)CC2)cc1` (centres unmarked) [compound 289, 4-([1,4′:1′,4″-terpiperidin]-1″-yl)-3-((4-((3,7-dimethyloctyl)oxy)phenyl)sulfonyl)-6-(methylsulfinyl)quinoline], the cytotoxicity at 20 µM worked out at 20%.
